Measured values published in patent US12409189B2, “STAUFEN1 agents and associated methods” (University of Utah Research Foundation, priority 2016, dated 2025).
“Also recorded” adds a separate entry of the source. d = 2'-deoxy (DNA); r = 2'-OH (RNA)

What was measured:
Assay type in all cases: cell-based, human
Staufen1 [1] = assay: Cycloheximide (CHX)-chase assay, Staufen1 protein stability, western blot
Procedure: (§1) To identify the underlying mechanism of ATXN2 polyQ expansion-mediated Staufen1 abundance, Staufen1 transcript levels were examined in normal and SCA2 fibroblasts. […] To test this, comparative protein stability for Staufen1 was measured by cycloheximide (CHX)-chase assay in normal and SCA2 fibroblasts. Relative Staufen1 levels were analyzed from harvested normal and SCA2 fibroblast extracts. (FIGS. 4B and 4C).
(§2) Preparation of protein lysates and western blot analyses. Cellular extracts were prepared by a single-step lysis method. The harvested cells were suspended in SDS-PAGE sample buffer [Laemmli sample buffer (Bio-Rad Inc.; cat #161-0737)] and then boiled for 5 min. Equal amounts of the extracts were used for western blot analyses. Cerebellar protein extracts were prepared by homogenization of mouse cerebella in extraction buffer [25 mM Tris-HCl pH 7.6, 300 mM NaCl, 0.5% Nonidet P-40, 2 mM EDTA, 2 mM MgCl2, 0.5 M urea and protease inhibitors (Sigma Inc.; cat #P-8340)] followed by centrifugation at 4° C. for 20 min at 14,000 RPM. […] Signals were detected by using the Immobilon Western Chemiluminescent HRP Substrate (Millipore Inc., USA; cat #WBKLSO100) according to the manufacturer's protocol. The intensity of proteins was determined by using the ImageJ software analyses system and the relative protein abundances were expressed as ratios to β-actin.

p21 Waf1/Cip1 = assay: Cycloheximide (CHX)-chase assay, p21 Waf1/Cip1 control, western blot; details: 4 hr after CHX treatment (25 μg/ml), both normal and SCA2 fibroblasts
Procedure: as §1, §2

[2] = system: autophagic pathway proteins (mTOR, P-mTOR, p62, LC3-II); assay: Western blot of autophagic pathway proteins in SH-SY5Y and ATXN2-Q22/58 knock-in cells; details: for autophagic pathway proteins: ATXN2-Q22/58 knock-in cells, RNAi transfection
Procedure: (§3) SH-SY5Y cells were cultured in standard DMEM with 10% FBS and 1X penicillin/streptomycin in 5% CO2. Transfection of STAU1 siRNA or STAU1 ASO was accomplished using Lipofectamine transfection reagent using standard conditions. Cells were harvested 3-5 days post transfection.
Protein extracts were prepared by suspending cell pellets in SDS-PAGE sample buffer (Laemmli sample buffer) followed by boiling for 5 min. Equal amount of the extracts were subjected to Western blot analysis to determine the steady-state levels of proteins using the indicated antibodies. Protein extracts were resolved by SDS-PAGE and transferred to Hybond P membranes (Amersham Bioscience Inc., USA). After blocking with 5% skim milk in 0.1% Tween 20/PBS, the membranes were incubated with primary antibodies in 5% skim milk in 0.1% Tween 20/PBS for 2 hrs at room temperature or overnight at 4° C. After several washes with 0.1% Tween 20/PBS, the membranes were incubated with the corresponding secondary antibodies conjugated with HRP in 5% skim milk in 0.1% Tween 20/PBS for 2 hrs at room temperature. Following three additional washes with 0.1% Tween 20/PBS, signals were detected by using the Immobilon Western Chemiluminescent HRP Substrate (Millipore Inc., USA; cat #WBKLSO100) according to the manufacturer's protocol. […] Secondary antibodies were horse anti-mouse IgG-HRP antibody (Vector laboratories, PI-2000), and goat anti-rabbit IgG-HRP antibody (Vector laboratories, PI-1000).
(§4) For over-expression of recombinant proteins, SH-SY5Y cells were seeded on 100 mm or 6 well dishes and incubated overnight. The cells were then transfected with plasmid DNAs and harvested 48 hrs post-transfection and processed as two aliquots for protein and RNA analyses. For siRNA experiments, cells were transfected with siRNAs using lipofectamine 2000, and lymphoblastoid B cells (1×10^6) were electroporated with siRNAs using the Neon transfection system (Invitrogen Inc., USA) according to the manufacturer's protocol and seeded on 6 well plates.
Preparation of protein lysates and western blot analyses. Cellular extracts were prepared by a single-step lysis method. […] Equal amounts of the extracts were used for western blot analyses. […] Only supernatants were used for western blotting. Protein extracts were resolved by SDS-PAGE and transferred to Hybond P membranes (Amersham Bioscience Inc., USA). After blocking with 5% skim milk in 0.1% Tween 20/PBS, the membranes were processed for immunostaining using corresponding primary and secondary antibodies. Signals were detected by using the Immobilon Western Chemiluminescent HRP Substrate (Millipore Inc., USA; cat #WBKLSO100) according to the manufacturer's protocol. The intensity of proteins was determined by using the ImageJ software analyses system and the relative protein abundances were expressed as ratios to β-actin.

Staufen1 [3] = assay: Western blot of Staufen1 in SH-SY5Y and ATXN2-Q22/58 knock-in cells; details: for STAU1 levels, expression relative to actin: SH-SY5Y-ATXN2 [Q22/Q22] cells, ASO at the indicated dose, western blotting
Procedure: as §3
Protein extracts were prepared by suspending cell pellets in SDS-PAGE sample buffer (Laemmli sample buffer) followed by boiling for 5 min. Equal amount of the extracts were subjected to Western blot analysis to determine the steady-state levels of proteins using the indicated antibodies. Protein extracts were resolved by SDS-PAGE and transferred to Hybond P membranes (Amersham Bioscience Inc., USA). After blocking with 5% skim milk in 0.1% Tween 20/PBS, the membranes were incubated with primary antibodies in 5% skim milk in 0.1% Tween 20/PBS for 2 hrs at room temperature or overnight at 4° C. After several washes with 0.1% Tween 20/PBS, the membranes were incubated with the corresponding secondary antibodies conjugated with HRP in 5% skim milk in 0.1% Tween 20/PBS for 2 hrs at room temperature. Following three additional washes with 0.1% Tween 20/PBS, signals were detected by using the Immobilon Western Chemiluminescent HRP Substrate (Millipore Inc., USA; cat #WBKLSO100) according to the manufacturer's protocol. The antibodies used included ATXN2 mAb [(1:3000), BD Biosciences Inc.; cat #611378], rabbit anti-Staufen antibody (Novus biologicals Inc., NBP1-33202), SQSTM1/p62 antibody (Cell signaling, #5114), LC3B Antibody (Novus biologicals Inc., NB100-2220), mTOR antibody (Cell signaling, #2972), Phospho-mTOR (Ser2448) antibody (Cell signaling #2971), β-Actin mAb conjugated with HRP [(1:10,000), Sigma Inc.; cat #A3858]. Secondary antibodies were horse anti-mouse IgG-HRP antibody (Vector laboratories, PI-2000), and goat anti-rabbit IgG-HRP antibody (Vector laboratories, PI-1000).
as §4
(§5) Preparation of protein lysates and western blot analyses. […] Signals were detected by using the Immobilon Western Chemiluminescent HRP Substrate (Millipore Inc., USA; cat #WBKLSO100) according to the manufacturer's protocol. The intensity of proteins was determined by using the ImageJ software analyses system and the relative protein abundances were expressed as ratios to β-actin.

ATXN2 = assay: Western blot of ATXN2 in ATXN2-Q22/58 KI cells after RNAi
Procedure: as §3
Protein extracts were prepared by suspending cell pellets in SDS-PAGE sample buffer (Laemmli sample buffer) followed by boiling for 5 min. Equal amount of the extracts were subjected to Western blot analysis to determine the steady-state levels of proteins using the indicated antibodies. Protein extracts were resolved by SDS-PAGE and transferred to Hybond P membranes (Amersham Bioscience Inc., USA). […] Following three additional washes with 0.1% Tween 20/PBS, signals were detected by using the Immobilon Western Chemiluminescent HRP Substrate (Millipore Inc., USA; cat #WBKLSO100) according to the manufacturer's protocol. […]
as §5

Staufen1 [4] = assay: Western blot of Staufen1 in normal and SCA2 LB cells and SCA2 fibroblasts after siRNA; details: siRNA electroporation, 4 days
Description: (§6) The siRNAs used in this study were: All Star Negative Control siRNA (Qiagen Inc., USA; Cat #1027280), siATXN2 [Hs_ATXN2_2, (Qiagen Inc., USA; Cat #SI00308196), human siSTAU1: 5′-CCUAUAACUACAACAUGAGdTdT-3′ (SEQ ID NO: 3) and mouse siStau1: 5′-CAACUGUACUACCUUUCCAdTdT-3′ (SEQ ID NO: 31). Staufen1 siRNA oligonucleotides were synthesized by Invitrogen Inc., USA. The oligonucleotides were deprotected and the complementary strands were annealed.
as §4, §5

ATXN2 transcript = assay: qPCR of ATXN2 transcript in LB cells after Staufen1 silencing; details: normal or SCA2-LB cells, Staufen1 siRNA
Description: as §6, §4
(§7) RNA expression analyses by Quantitative RT-PCR. […] Quantitative RT-PCR was performed in QuantStudio 12K (Life Technologies, Inc.; USA) with the Power SYBR Green PCRMaster Mix (Applied Biosystems Inc.; USA). […] The threshold cycle for each sample was chosen from the linear range and converted to a starting quantity by interpolation from a standard curve run on the same plate for each set of primers. […]

PCP2 mRNA = assay: qPCR of PCP2 transcript in LB cells and SCA2 fibroblasts after siRNA; details: Staufen1 siRNA
Description: as §6, §4, §7

STAU1 = assay: Sodium arsenite-induced stress, STAU1 immunoblotting in fibroblasts
Description: Cell culture and Transfections. Four normal skin fibroblasts (ATXN2 with CAG22) and five SCA2 patient-derived skin FBs (ATXN2 with CAG repeats; 35, 35, 35, 42, and 45), were maintained in DMEM medium containing 10% fetal bovine serum. Two normal (ATXN2 with CAG22) and three SCA2 patient-derived (ATXN2 with expanded CAG repeats; 40, 46 and 52) Epstein-Barr virus (EBV)-immortalized LBCs were maintained in RPMI medium containing 15% fetal bovine serum. All subjects gave written consent and all procedures were approved by the Institutional Review Board at the University of Utah. The following primary human fibroblasts were obtained from the Coriell Cell Repositories (Camden, NJ, USA): ALS patient (TDP-43G298S mutation)(ND32947), Huntington disease (HD) patient (ND33392) and SCA3 (Machado-Joseph disease, MJD) patient (GM06153). TDP-43G298S, HD, SCA3, and SH-SY5Y cells were maintained in DMEM medium containing 10% fetal bovine serum.
as §5, with “analyses. Cellular extracts were prepared by a single-step lysis method.” for “analyses.”

[5] = SH-SY5Y and ATXN2-Q22/58 knock-in cells, Baf dose-wise, 6 h, vs untreated

C[C@@H]1C[C@@H]([C@H](O)CC2CC(=O)NC(=O)C2)C(=O)[C@@H](C)C1 [CHX, cycloheximide]
Staufen1 protein expression levels (Staufen1 [1]; SCA2 fibroblasts, CHX treatment): relatively little decrease
Staufen1 levels (Staufen1 [1]; normal fibroblasts, 4 hr after CHX treatment): reduced
reduction of p21 Waf1/Cip1 levels (p21 Waf1/Cip1): ~90%

CO/C1=C\C(C)=C\[C@@H](C)[C@@H](O)[C@@H](C)C/C(C)=C/C=C/[C@H](OC)[C@@H]([C@@H](C)[C@@H](O)[C@H](C)[C@@]2(O)C[C@@H](O)[C@H](C)[C@@H](C(C)C)O2)OC1=O [Bafilomycin Al, bafilomycin Al, reference compound]
LC3-II level ([2]; ATXN2-Q22/58 KI cells, Baf treatment): slight elevation of LC3-II
processed LC3-II and p62 levels [2, 5]: dose-wise increased levels
Staufen1 levels / clearance (Staufen1 [3]; [5]): dose-wise increased levels; also recorded: lowers Staufen1 clearance

5′-CCUAUAACUACAACAUGAGdTdT-3′ (sense CCUAUAACUACAACAUGAGTT; sugars from the 5' end r19 d2, backbone not given here) [siSTAU1, siRNA directed against human Staufen1, synthesized by Invitrogen]
autophagic pathway proteins ([2]; listed as STAU1 RNAi): restored autophagic pathway proteins
autophagic pathway proteins ([2]; listed as STAU1 siRNA): restoration of autophagic pathway proteins
ATXN2 steady-state levels (ATXN2; listed as STAU1-RNAi): did not change ATXN2 levels
ATXN2 steady-state levels (ATXN2; listed as STAU1 siRNA): without affecting ATXN2 steady-state levels
depletion of Staufen1 (Staufen1 [4]; SCA2-LB (ATXN2-Q22/52) cells): ~83%
silencing of staufen1 (Staufen1 [4]; normal LB cells): ~81%
ATXN2 transcript levels (ATXN2 transcript): does not show any effect on ATXN2 transcript levels
PCP2 mRNA level (PCP2 mRNA; SCA2-LB (ATXN2-Q22/52) cells, qPCR): restored PCP2 mRNA level to a level similar to that seen in normal LB cells treated with control siRNA
PCP2 mRNA levels (PCP2 mRNA; normal LB cells, vs control siRNA): did not show significant alteration of PCP2 mRNA levels

5′-CTGGAAAGATAGTCCAGTTG-3′ (listed as DNA, chemistry not given here; listed as Homo sapiens) [STAU1 ASO-B, antisense oligonucleotide targeting Staufen1]
STAU1 levels, expression relative to actin (Staufen1 [3]): reduced STAU1 levels

5′-TCTCATGTTGTAGTTATAGG-3′ (listed as DNA, chemistry not given here; listed as Homo sapiens) [STAU1 ASO-A, antisense oligonucleotide targeting Staufen1]
STAU1 levels, expression relative to actin (Staufen1 [3]): reduced STAU1 levels

O=[As]O [sodium arsenite]
STAU1 level in response to arsenite (STAU1; HD and SCA3 patient fibroblasts, 1.0 mM, 0, 3 and 6 hr): early and exaggerated responses; also recorded: exaggerated increases in STAU1 levels
STAU1 level in response to arsenite (STAU1; normal fibroblasts (implied), only visible after 6 hr treatment): modest STAU1 increase
